From PubChem BioAssay AID248 (DTP/NCI, 2004)
Inconclusive results and toxic doses are left out. No stated cut-off is given here; in the data, active means T/C of 150% or more; inactive means T/C below 125%.

Tested on: L1210 leukemia ip in BDF1 mice, survival T/C
Assay: NCI In Vivo Anticancer Drug Screen. Data for tumor model L1210 Leukemia (intraperitoneal) in B6D2F1 (BDF1) mice
Conditions: endpoint: mean survival time, higher = longer survival
How it was run: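 Tumor was transplanted into mice, which were then dosed with test compound or vehicle alone. Survival was recorded for each group, and the treated figure was expressed relative to the control figure.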

[1] = dose: 100.0 mg/kg/injection, schedule: Q01DX001 (ip), vehicle: saline
[2] = dose: 200.0 mg/kg/injection, schedule: Q01DX001 (ip), vehicle: saline
[3] = dose: 400.0 mg/kg/injection, schedule: Q01DX001 (ip), vehicle: saline

Measured: T/C

CCCCCCCCCCCCCCCCCCn1cnc2ncnc(Cl)c21
inactive: dose: 12.5 mg/kg/injection, schedule: Q01DX005 (ip), vehicle: other 107 % of control | dose: 25.0 mg/kg/injection, schedule: Q01DX005 (ip), vehicle: other 102 % of control | dose: 50.0 mg/kg/injection, schedule: Q01DX005 (ip), vehicle: other 98 % of control | dose: 100.0 mg/kg/injection, schedule: Q01DX005 (ip), vehicle: other 106 % of control | dose: 200.0 mg/kg/injection, schedule: Q01DX005 (ip), vehicle: other 93 % of control

Cc1cc(C(C)(C)c2ccc(O)c(C)c2)ccc1O
inactive: dose: 50.0 mg/kg/injection, schedule: Q01DX009 (ip), vehicle: saline 97 % of control | dose: 100.0 mg/kg/injection, schedule: Q01DX009 (ip), vehicle: saline 97 % of control | dose: 100.0 mg/kg/injection, schedule: Q04DX003 (ip), vehicle: saline with Tween-80 100 % of control | dose: 200.0 mg/kg/injection, schedule: Q01DX009 (ip), vehicle: saline 94 % of control | dose: 200.0 mg/kg/injection, schedule: Q04DX003 (ip), vehicle: saline with Tween-80 102 % of control | dose: 400.0 mg/kg/injection, schedule: Q04DX003 (ip), vehicle: saline with Tween-80 107 % of control

CCCCCCCCCCCCCC(C)C
inactive: [1] 96 % of control | [2] 102 % of control | [3] 94 % of control

CC(=O)c1ccc2c(c1)sc1ccccc12
inactive: dose: 50.0 mg/kg/injection, schedule: Q01DX001 (ip), vehicle: other 96 % of control | dose: 100.0 mg/kg/injection, schedule: Q01DX001 (ip), vehicle: other 96 % of control | dose: 200.0 mg/kg/injection, schedule: Q01DX001 (ip), vehicle: other 96 % of control | dose: 400.0 mg/kg/injection, schedule: Q01DX001 (ip), vehicle: other 87 % of control

COC(=O)C1C2C=CC(C3C=CC32)C1C(=O)OC (configuration not stated)
inactive: dose: 100.0 mg/kg/injection, schedule: Q04DX002 (ip), vehicle: Klucel (hydroxypropylcellulose) (HPC) 103 % of control | dose: 200.0 mg/kg/injection, schedule: Q04DX002 (ip), vehicle: Klucel (hydroxypropylcellulose) (HPC) 97 % of control | dose: 400.0 mg/kg/injection, schedule: Q04DX002 (ip), vehicle: Klucel (hydroxypropylcellulose) (HPC) 103 % of control

COC(=O)c1ncccc1C(=O)O
inactive: dose: 50.0 mg/kg/injection, schedule: Q01DX009 (ip), vehicle: saline with Tween-80 96 % of control | dose: 100.0 mg/kg/injection, schedule: Q01DX009 (ip), vehicle: saline with Tween-80 93 % of control

Cc1cc2oc(/C=N/O)c(C)c2cc1C
inactive: dose: 100.0 mg/kg/injection, schedule: Q01DX009 (ip), vehicle: Klucel (hydroxypropylcellulose) (HPC) 99 % of control | dose: 200.0 mg/kg/injection, schedule: Q01DX009 (ip), vehicle: Klucel (hydroxypropylcellulose) (HPC) 96 % of control | dose: 400.0 mg/kg/injection, schedule: Q01DX009 (ip), vehicle: Klucel (hydroxypropylcellulose) (HPC) 90 % of control

CC1(C)CC(=O)CC(C)(C#N)C1 (configuration not stated)
inactive: dose: 6.25 mg/kg/injection, schedule: Q01DX009 (ip), vehicle: Klucel (hydroxypropylcellulose) (HPC) 97 % of control | dose: 12.5 mg/kg/injection, schedule: Q01DX009 (ip), vehicle: Klucel (hydroxypropylcellulose) (HPC) 99 % of control | dose: 12.5 mg/kg/injection, schedule: Q04DX003 (ip), vehicle: Klucel (hydroxypropylcellulose) (HPC) 91 % of control | dose: 25.0 mg/kg/injection, schedule: Q04DX003 (ip), vehicle: Klucel (hydroxypropylcellulose) (HPC) 93 % of control

Cc1ccccc1NP1(=O)OCCCN1Cc1ccc(Cl)c(Cl)c1 (configuration not stated)
inactive: dose: 50.0 mg/kg/injection, schedule: Q01DX001 (ip), vehicle: carboxymethylcellulose (CMC) 98 % of control | dose: 100.0 mg/kg/injection, schedule: Q01DX001 (ip), vehicle: carboxymethylcellulose (CMC) 98 % of control | dose: 200.0 mg/kg/injection, schedule: Q01DX001 (ip), vehicle: carboxymethylcellulose (CMC) 98 % of control | dose: 400.0 mg/kg/injection, schedule: Q01DX001 (ip), vehicle: carboxymethylcellulose (CMC) 93 % of control

COc1cc2c(c(OC)c1OC)-c1ccc(OC)c(=O)cc1[C@@H](NC=O)CC2
inactive: dose: 0.35 mg/kg/injection, schedule: Q01DX015 (ip), vehicle: carboxymethylcellulose (CMC) 118 % of control | dose: 0.5 mg/kg/injection, schedule: Q01DX009 (ip), vehicle: Klucel (hydroxypropylcellulose) (HPC) 122 % of control | dose: 0.7 mg/kg/injection, schedule: Q01DX015 (ip), vehicle: carboxymethylcellulose (CMC) 112 % of control | dose: 3.0 mg/kg/injection, schedule: Q01DX015 (ip), vehicle: carboxymethylcellulose (CMC) 90 % of control

CCCCCCCCCCCCCCCCCC(=O)Nc1ccc(O)cc1
inactive: dose: 100.0 mg/kg/injection, schedule: Q01DX009 (ip), vehicle: gum acacia 87 % of control | dose: 100.0 mg/kg/injection, schedule: Q04DX003 (ip), vehicle: gum acacia 88 % of control | dose: 200.0 mg/kg/injection, schedule: Q01DX009 (ip), vehicle: gum acacia 90 % of control | dose: 200.0 mg/kg/injection, schedule: Q04DX003 (ip), vehicle: gum acacia 88 % of control | dose: 400.0 mg/kg/injection, schedule: Q01DX009 (ip), vehicle: gum acacia 90 % of control | dose: 400.0 mg/kg/injection, schedule: Q04DX003 (ip), vehicle: gum acacia 90 % of control

COc1cc(C(=O)COC(C)=O)cc(OC)c1OC(C)=O
inactive: [1] 88 % of control | [2] 89 % of control | [3] 89 % of control
